US20210121482A1, “WITHANOLIDES FOR THE TREATMENT OF CACHEXIA” (University of Louisville Research Foundation, Inc., priority 2019, published 2021)
Read-outs that look alike come from different tables or passages of the source.

Legend:
A2780 cells = assay: Free peritoneal tumor weight (Example 1); assay type: in vivo, mice; settings: 2 and 6 mg/kg, vs vehicle treated group
Text: Free peritoneal tumors (visible tumors) not associated with an organ were collected and weighed to assess WFA effects. […] At the time of euthanization and tissue collection, tumors associated with the intestines were found most frequently in the vehicle treated group and were of the largest size.

gonadal fat pad = assay: Qualitative assessment of gonadal fat; assay type: in vivo, mice
Text: Ovarian cancer progression is often associated with the specific loss of the gonadal fat pad. Thus, an attempt was made to quantify the amount of adipose tissue present in the gonadal region at the time of tissue collection post-euthanization. The severe reduction in the gonadal fat pad rendered accurate measurement of gonadal adipose tissue improbable. Further, in some mice, there was a complete absence of gonadal fat.
1. When the ovaries were embedded in adipose tissue and not readily identifiable without dissection through the fat pad, the mouse was scored “Abundant”. All mice in the control group were deemed to have an abundant amount of gonadal fat, whereas the vehicle treated group had no gonadal fat present, consistent with published reports linking specific changes in the gonadal fat pad to the progression of ovarian cancer.
2. When adipose tissue was present but in such a scant quantity that we could not accurately quantify the mass, the amount of gonadal fat was marked as “Small Amount”.

[1] = test system: Caspase 1, NLRP3, IL-1β, IL-18, HO-1; assay: IHC of NLRP3 inflammasome proteins in tumor samples; assay type: in vivo, mice
Description: Immunohistochemistry of Tumor Tissue: For the detection of various proteins, 10 μm thick sections were made from the midsection of tumor samples. A hydrophobic boundary was drawn around the sections and then they were fixed in 3.7% formaldehyde solution for 10 minutes. The slides were washed three times with 1×PBS for 5 minutes each. The sections were then blocked in 2% BSA in PBS for 30 minutes. The sections were then incubated with primary antibodies (1:100 dilution) overnight in a humidity chamber at 4° C. The sections were then washed three times with 1×PBS for 5 minutes. The slides were incubated in appropriate secondary antibodies (1:2000 dilution) for 45-60 minutes. Sections were counterstained with DAPI (1:2500 dilution) for 5 minutes to visualize nuclei. Slides were then washed twice in 1×PBS for 5 minutes, and then mounted for visualization. Nonspecific background staining was determined by performing the above protocol with omitting the inclusion of the primary antibodies. Refer to Table 2 for a complete list of antibodies utilized.

satellite cells = assay: Satellite cell IHC (Pax7, MyoD, Laminin) in TA muscle; assay type: in vivo, mice
Description: Due to the role of WFA in inhibiting canonical NF-κ B signaling and the effect ovarian cancer has on this signaling pathway, WFA and the xenograft model were tested to measure induction or activation of satellite cells. The TA muscle was subjected to immunofluorescent immunohistochemical (IHC) staining for Pax7 (a marker of satellite cells), MyoD (a marker of myogenic differentiation), and Laminin (a marker of the basal lamina) (FIG. 15A). As accurate IHC detection of satellite cells can be challenging, individual color channels were compared against negative control slides to optimize visualization of satellite cells, minimize nonspecific background staining, and rule out false positives (Pax7^+/DAPI− cells) (37).
Initially, the number of satellite cells per field (normalized by the number of Laminin+ myofibers) was quantified to assess whether the model of ovarian cancer or WFA treatment affected the satellite cell population at large. […] There was a significant increase in the amount of Pax7+ cells in the tumor-bearing vehicle-treated group (0.34±0.01) compared to the tumor-free vehicle-treated and tumor-free WFA 2 mg/kg groups, although there was a significant reduction compared to the tumor-free WFA 4 mg/kg group (p<0.0001 for all comparisons). […] A small, but statistically significant decrease in the tumor-bearing WFA 4 mg/kg group was observed compared to the tumor-bearing vehicle-treated group (p=0.0004). […] Due to the systemic nature of WFA treatment, the tumor-specific uptake of WFA may have diminished the effect observed on skeletal muscle with respect to satellite cell activation in the tumor-bearing animals compared to the tumor-free animals.
After assessing changes in the gross number of satellite cells, the myogenic status was assessed to determine if the satellite cells were functionally activated. Satellite cells that are Pax7+/MyoD− are self-renewing or returning to quiescence, whereas satellite cells that are Pax7+/MyoD+ have committed to the myogenic lineage and will facilitate in muscle repair (6, 38). […] It was not feasible to enumerate the population of Pax7−/MyoD+ cells in response to the xenografted cancer or WFA treatment due to experimental limitations. However, distinct populations of Pax7+/MyoD− and Pax7+/MyoD+ cells were present (FIGS. 15C and 15D).

[2] = Change in tumor-free body weight (Example 3); assay type: in vivo, mice; settings: tumor-bearing, 2 and 4 mg/kg, vs tumor-bearing vehicle
Text: Experimental tumors were induced as described in Example 2.
No significant difference in tumor weight between the two doses of WFA was observed (p=0.65).

angiotensinogen (AGT) = assay: qPCR of angiotensinogen in tumor tissues; assay type: in vivo, Homo sapiens
Description: Total RNA Extraction and qPCR: Isolation of total RNA from xenografted tumor samples was performed using an RNeasy® Mini Kit (Qiagen Catalog #74104) according to the manufacturer's instructions. Isolation of total RNA from skeletal muscle was performed using an RNeasy® Fibrous Tissue Mini Kit (Qiagen Catalog #74704) according to the manufacturer's instructions. First strand cDNA was synthesized using 1 μg of purified RNA and a commercially available kit (iScript™ cDNA synthesis, Bio-Rad Catalog #170-8891), Quantification of mRNA expression was performed similar to as previously described (Hindi and Kumar, 2016) using the SYBR Green dye method on a StepOnePlus™ system (Applied Biosystems) using gene-specific primers, as shown in Table 1.
Isolation and preparation of total RNA was performed as described in Example 1.

[3] = test system: A2780 ovarian cancer xenograft; settings: mouse, in vivo
Description: (§1) Tumor-bearing groups received an IP injection of 1.0×10^6 low passage A2780 cells suspended in 100 μl sterile PBS.
(§2) Graphical Display and Statistical Analyses: The majority of the results were expressed as box-and-whisker plots with the box comprised of the first, second, and third quartiles, and the lower and upper whiskers corresponding to the minimum and maximum values, respectively, to display the entire range of data. A Kaplan-Meier curve was used for the survival analysis. Statistical analysis of the data was performed using one-way analysis of variance (ANOVA) followed by Tukey's Honestly Significant Difference Test (HSDT) post hoc analysis or the Mantel-Cox log-rank test to determine statistically significant differences between groups with GraphPad Prism 8.0.1 software for Mac (La Jolla, Calif., USA). A value of P<0.05 was considered statistically significant, unless otherwise specified.

[4] = test system: A2780 ovarian cancer xenograft; assay: Survival and tolerability, A2780 xenograft mice (Example 1)
Description: as §1, §2

In the case of `CC1=C(CO)C(=O)O[C@@H]([C@@H](C)[C@H]2CC[C@H]3[C@@H]4C[C@H]5O[C@]56[C@@H](O)C=CC(=O)[C@]6(C)[C@H]4CC[C@]23C)C1` [WFA, (4β,5β,6β,22R)-4,27-Dihydroxy-5,6:22,26-diepoxyergosta-2,24-diene-1,26-dione], the “weight of free peritoneal tumors” value (A2780 cells) is reported as “significantly reduced the size of peritoneal tumors”, the “tumors associated with the intestines” value (A2780 cells; at tissue collection) is reported as “fewer and smaller tumors” and the “Gonadal Fat: Absent (mice scored/group)” value (gonadal fat pad; WFA 2 mg/kg) is reported as 0. For the same compound, the “Gonadal Fat: Abundant (mice scored/group)” value (gonadal fat pad; WFA 2 mg/kg) was 0, the “Gonadal Fat: Present (mice scored/group)” value (gonadal fat pad; WFA 2 mg/kg) was 4/5 and the “Gonadal Fat: Small Amount (mice scored/group)” value (gonadal fat pad; WFA 2 mg/kg) was 1/5. The “Gonadal Fat: Absent (mice scored/group)” value (gonadal fat pad; WFA 6 mg/kg) was 0, the “Gonadal Fat: Abundant (mice scored/group)” value (gonadal fat pad; WFA 6 mg/kg) was 0 and the “Gonadal Fat: Present (mice scored/group)” value (gonadal fat pad; WFA 6 mg/kg) was 1/4. The “Gonadal Fat: Small Amount (mice scored/group)” value (gonadal fat pad; WFA 6 mg/kg) was 3/4, the “expression of IL-1β, IL-18 and HO-1 in tumor (IHC)” value ([1]; 2 mg/kg) was “drastically lowered the expression of IL-1β and IL-18 and increased the expression of HO-1” and the “expression of IL-1β, IL-18 and HO-1 in tumor (IHC)” value ([1]; 6 mg/kg) was “intermediate expression of all three proteins”. For the same compound, the “Caspase 1 and NLRP3 staining in tumor (IHC)” value ([1]; 2 and 6 mg/kg, vs vehicle treated group) was “reduction in Caspase 1 and NLRP3 staining”, the “Pax7+ cells normalized by number of Laminin+ myofibers” value (“Pax7+ cells normalized by number” for short) (satellite cells; tumor-bearing, WFA 2 mg/kg) was 0.26±0.01 and the “proportion of differentiating satellite cells (Pax7+/MyoD+)” value (satellite cells; tumor-bearing, WFA 2 mg/kg) was 48.85±1.63%. For the same compound, the “proportion of proliferating satellite cells (Pax7+/MyoD−)” value (from here on “proportion … (Pax7+/MyoD−)”) (satellite cells; tumor-bearing, WFA 2 mg/kg) was 51.15±1.63%, the “Pax7+ cells normalized by number” value (satellite cells; tumor-bearing, WFA 4 mg/kg) was 0.31±0.01 and the “proportion of differentiating satellite cells (Pax7+/MyoD+)” value (satellite cells; tumor-bearing, WFA 4 mg/kg) was 52.79±1.99%. For the same compound, the “proportion … (Pax7+/MyoD−)” value (satellite cells; tumor-bearing, WFA 4 mg/kg) was 47.21±1.99%, the “Pax7+ cells normalized by number” value (satellite cells; tumor-free, WFA 2 mg/kg) was 0.28±0.02 and the “proportion of differentiating satellite cells (Pax7+/MyoD+)” value (satellite cells; tumor-free, WFA 2 mg/kg) was 60.73±2.28%. The “proportion … (Pax7+/MyoD−)” value (satellite cells; tumor-free, WFA 2 mg/kg) was 39.27±2.28%, the “Pax7+ cells normalized by number” value (satellite cells; tumor-free, WFA 4 mg/kg) was 0.42±0.01 and the “proportion of differentiating satellite cells (Pax7+/MyoD+)” value (satellite cells; tumor-free, WFA 4 mg/kg) was 61.37±1.49%. The “proportion … (Pax7+/MyoD−)” value (satellite cells; tumor-free, WFA 4 mg/kg) was 38.63±1.49%, the “absolute change in tumor-free body weight” value [2] was “significant preservation of body weight loss” and the “relative transcript levels of angiotensinogen in tumor samples” value (angiotensinogen (AGT); WFA 2 mg/kg) was 0.3676±0.252 fold change. The “relative transcript levels of angiotensinogen in tumor samples” value (angiotensinogen (AGT); WFA 4 mg/kg) was 0.0694±0.144 fold change, the “toxicity of high dose” value [3] was “turned out to be toxic” and the “survival (Kaplan-Meier)” value ([4]; 2 mg/kg, vs WFA 6 mg/kg and vehicle treated groups) was “higher survival rate”. The “toxicity of high dose” value ([4]; 6 mg/kg IP every three days, tumor-bearing NSG mice) was “may be a lethal dose” and the “survival (Kaplan-Meier)” value ([4]; 6 mg/kg, vs vehicle treated group (p=0.06)) was “trend towards an increase in survival”.
